Results: patent US11896650B2, “Enhancing chemotherapy in medulloblastoma and glioblastoma with high basal p53 levels” (GEORGETOWN UNIVERSITY, priority 2018, dated 2024)

Assays:
Type in all cases: cell-based
p110 = assay: Cell viability of cells overexpressing p110 with added mTOR/AKT signaling inhibitor
Description: FIGS. 3A, 3B, 3C, 3D, and 3E show the effects of over expression of p110-caax on D556 and D283 cell survival. D556 cells were transformed with p110 or control plasmid, and Western blots for p110 and β-actin were run (FIG. 3A). The effects of overexpression of p110 on cell viability were determined via Trypan blue assay on D283 cells (FIG. 3B, upper right panel) and D556 cells (FIG. 3C, lower left panel) showing Trypan blue assay results; lower middle panel showing). Cell viability for D556 cells was also measured by propidium iodide (PI) staining and measured by flow cytometry (FIG. 3D, lower middle panel)). Reversal of chemosensitivity induced by p110 overexpression is shown when an inhibitor of mTOR/AKT signaling (Rad001/Everolimus) is added (FIG. 3E)
D556 cells were transformed with p110 or control plasmid and Western blots for p110 and β-actin were run (FIG. 3A). The effects of overexpression of p110 on cell viability were determined via Trypan blue assay on D283 cells (FIG. 3B) and D556 cells (FIG. 3C). Cell viability for D556 cells was also measured by propidium iodide (PI) staining and measured by flow cytometry (FIG. 3D).

pmTOR in D556 cells = assay: Western blot for pmTOR in D556 cells infected with p53 shRNA or control pLKO lentivirus
Description: D556 cells were infected with either p53 shRNA or control pLKO lentivirus and Western blotting was performed to show the effect of p53 inhibition on pmTOR.

D556 cells [1] = assay: Cell survival of D556 cells after p53 knockdown and drug treatment; details: 18 hours treatment
Description: (§1) Comparative sensitivities of D556 cells treated with cisplatin (FIG. 6B) or vincristine (FIG. 6C) were tested at the concentrations shown and in the presence or absence of thymosin β-4 (5 nM). * p<0.05, N>3 separate experiments.
(§2) For chemosensitivity testing, the effects of p53 knockdown on cell survival of D556 cells treated with doxorubicin (dox), vincristine (vinc) and cisplatin (csp) was further assessed.

D556 cells [2] = assay: Apoptotic cell death of D556 cells after p53 and mTOR shRNA knockdown and drug treatment (trypan blue, annexin V/PI); details: p53 loss plus mTOR knockdown
Description: FIGS. 2A, 2B and 2C show the effect of silencing of p53 and mTOR in D556 cells. FIG. 2A and FIG. 2B are bar graphs showing the proportion of cells undergoing apoptotic cell death as a result of infection with p53 shRNA, control pLKO, mTOR and both p53 and mTOR lentivirus in D556 cells treated for 18 hrs with DMSO, VMY (30 uM) or doxorubicin (1 uM) as assessed using Trypan blue (FIG. 2A) and annexin V and propidium iodide (PI) staining (FIG. 2B) and measured by flow cytometry. Data are shown as percent change in staining versus pLKO-control infected cells.
The proportion of cells undergoing apoptotic cell death as a result of infection with p53 shRNA, control pLKO, mTOR and both p53 and mTOR lentivirus in D556 cells treated for 18 hrs with DMSO, VMY (30 uM) or doxorubicin (1 uM) was assessed using trypan blue (FIG. 2A) and annexin V and propidium iodide (PI) staining (FIG. 2B) and measured by flow cytometry. Data were determined as the percent change in staining versus pLKO-control infected cells.

D556 cells [3] = assay: Cell viability of D556 cells treated with chemotherapeutic agents with or without Tβ-4 (propidium iodide staining, flow cytometry; wst-1)
Description: (§3) FIGS. 4A, 4B, and 4C show the effects of thymosin beta-4 (Tβ-4) on D556 and D283 cell survival. For cell viability assays, D556 cells (FIG. 4A) and D283 cells (FIG. 4B) were treated with DMSO, doxorubicin, or VMY in the presence or absence of Tβ-4, and cell viability as measured using propidium iodide (PI) staining with flow cytometry. Control cells were untreated. […] GADPH expression was used as a control.
(§4) The effect of Tβ-4 was evaluated using a cell viability assay for D556 and D283 cells. D556 and D283 cells were treated with 5 nM Tβ-4 and either doxorubicin or VMY. Viability of D556 cells (FIG. 4A) and of D283 cells (FIG. 4B) was measured using propidium iodide (PI) staining with flow cytometry. A dose response curve was performed for D556 cells treated with vincristine alone or vincristine plus Tβ-4 using a cellular proliferation assay kit wst-1 (FIG. 4C).

D283 cells = assay: Cell viability of D283 cells treated with chemotherapeutic agents with or without Tβ-4 (propidium iodide staining, flow cytometry)
Description: as §3, §4

[4] = test system: Akt, PP2A (α and c subunit), PARP and RIP1 in D556 cells; assay: Western blot of D556 cells after Tβ-4 treatment
Description: FIGS. 5A, 5B, 5C and 5D are Western blots showing that Tβ-4 treatment of D556 cells induces expression of Akt, PP2A (α and c subunits), PARP, and RIP1.
To further assess the mechanism of effect of Tβ-4 treatment of D556 cells, Western blot were performed.

D556 cells [5] = assay: Chemosensitivity testing of D556 cells with cisplatin or vincristine in presence or absence of Tβ-4; details: Tβ-4 5 nM; p<0.05
Description: as §1, §2

[6] = with doxorubicin, vincristine, VMY-1-103

CO[C@H]1C[C@@H]2CC[C@@H](C)[C@@](O)(O2)C(=O)C(=O)N2CCCC[C@H]2C(=O)O[C@H]([C@H](C)C[C@@H]2CC[C@@H](OCCO)[C@H](OC)C2)CC(=O)[C@H](C)/C=C(\C)[C@@H](O)[C@@H](OC)C(=O)[C@H](C)C[C@H](C)/C=C/C=C/C=C/1C [Rad001/Everolimus, Everolimus]
effect on chemosensitivity induced by p110 overexpression (p110): reversed the chemosensitivity induced by p110

CC(C)[C@H](CO)Nc1nc(Nc2ccc(C(=O)NCCNS(=O)(=O)c3cccc4c(N(C)C)cccc34)c(Cl)c2)c2ncn(C(C)C)c2n1 [VMP]
pmTOR level in cells infected with p53 shRNA vs control pLKO lentivirus (pmTOR in D556 cells): induction of pmTOR

N.N.[Cl][Pt][Cl] [cisplatin]
cell survival of p53 shRNA infected D556 cells vs control pLKO lentivirus (D556 cells [1]): lower percentage of cell survival

COc1cccc2c1C(=O)c1c(O)c3c(c(O)c1C2=O)C[C@@](O)(C(=O)CO)C[C@@H]3O[C@H]1C[C@H](N)[C@H](O)[C@H](C)O1 [doxorubicin]
pmTOR level in cells infected with p53 shRNA vs control pLKO lentivirus (pmTOR in D556 cells): induction of pmTOR | cell survival of p53 shRNA infected D556 cells vs control pLKO lentivirus (D556 cells [1]): lower percentage of cell survival | chemoresistance of p53-suppressed D556 cells after shRNA knockdown of mTOR (D556 cells [2]): restoring chemoresistance

CC[C@]1(O)C[C@H]2CN(CCc3c([nH]c4ccccc34)[C@@](C(=O)OC)(c3cc4c(cc3OC)N(C=O)[C@H]3[C@@](O)(C(=O)OC)[C@H](OC(C)=O)[C@]5(CC)C=CCN6CC[C@]43[C@@H]65)C2)C1 [vincristine]
cell survival of p53 shRNA infected D556 cells vs control pLKO lentivirus (D556 cells [1]): lower percentage of cell survival | chemoresistance of p53-suppressed D556 cells after shRNA knockdown of mTOR (D556 cells [2]): restoring chemoresistance

Tβ-4: multifunctional regenerative peptide, sequence MSDKPDMAEIEKFDKSKLKKTETQEKNPLPSKETIEQEKQAGES (SEQ ID NO:1); PI3K activator; commercially available as RGN-352 (MSDKPDMAEIEKFDKSKLKKTETQEKNPLPSKETIEQEKQAGES; listed as Homo sapiens)
Tβ-4 sensitivity of cell line (D556 cells [3]; D556 cells): sensitive | sensitization of MB cells with high p53 levels to chemotherapeutic agents (D556 cells [3]; [6]): sensitizes MB cells with high p53 levels to chemotherapeutic agents | Tβ-4 sensitivity of cell line (D283 cells; D286 cells): insensitive | protection of D283 (p53 low) cells from chemotherapeutic agents (D283 cells; [6]): protects D283 (p53 low) cells from the same drugs | protein induction by Western blot [4]: induces Akt, PP2A (α and c subunit), PARP and RIP1 | sensitivity of D556 cells to cisplatin in presence vs absence of Tβ-4 (D556 cells [5]): significantly more sensitivity | sensitivity of D556 cells to vincristine in presence vs absence of Tβ-4 (D556 cells [5]): significantly more sensitivity
